“Also recorded” adds a separate entry of the source. Where two headings read alike, the source gives them in different places.
Tests used:
[1] = system: C. elegans VC2010; assay: Manual phenotyping pilot screen of 3,584 known compounds (CCBN library); assay type: in vivo, Caenorhabditis elegans; details: dissecting microscope, positively confirmed drugs of CCBN library
[2] = system: Human embryonic kidney (HEK293) cells; assay: HEK293 viability, MTT colorimetric assay; assay type: cell-based; details: read-out: Mammalian IC50
Protocol: Potential anthelmintic compounds identified from primary screening were further tested against mammalian cells and yeast to determine whether they had deleterious effects in those organisms. Human embryonic kidney (HEK293) cells were grown in Dulbecco’s Modified Eagle’s Medium (DMEM; Sigma) containing 5% fetal bovine serum (FBS; Sigma) in 96-well plates tissue culture plates. Compounds were added 24h post-plating at 10, 30, 100, or 300 μM final concentrations. Dimethyl sulfoxide (DMSO) was used as a negative control at 0.1%. Cells were treated for 24 or 48 hours, after which time viability was assessed using a 3-(4,5-dimethylthiazol-2-yl)-2,5-diphenyltetrazolium bromide (MTT) colorimetric assay. Percent viability was determined by comparing treatment values to DMSO control values.

[3] = system: C. elegans VC2010 (wild type); assay: WormScan screen of C. elegans growth, fecundity, motility and mortality; assay type: in vivo, Caenorhabditis elegans; details: read-out: Nematode IC50
Protocol: All compound libraries were stored in 96-well plates, with 80 drugs per plate (columns 1 and 12 left empty). A BioGrid BG600 pinning robot (Digilab / BioRobotics) was used for compound transfer. The robot uses a 96-pin tool (0.7 mm dia.) to transfer a nominal volume of 340 nL of compound. For retesting, compounds were hand pinned from the original library plates to assay plates using a single 0.7 mm dia. pin. The assay plates were 96-well clear flat-bottom microplates containing 2% χ1666 E.coli bacteria in 0.5X Liquid Nematode Growth Media (LNGM) plus cholesterol (Bacteria were mass-grown in rich media, and harvested by centrifugation to produce a thick paste of bacterial cells that was kept frozen at -20°C. Cells were resuspended at 2% W/V in 0.5X LNGM to produce liquid worm food). Using a COPAS Biosort (Union Biometrica), two L4 to young adult stage VC2010 worms were added to each well of the plate in a final volume of 45 μL. After five days of exposure to the compounds, the plates were scanned and the data analyzed. A five day time period was chosen to be able to observe effects over all stages of the life cycle and through at least one round of replication. The initial proof-of-principle primary screen was performed manually using a dissecting microscope. Phenotypes scored included decreased motility, reduced brood size, and/or death as described previously. For high throughput screening of the Chembridge and Maybridge compound libraries we used the program WormScan, which was adapted for screening 96-well flat-bottom LNGM plates. Using WormScan it was possible to screen four 96-well plates at a time. Plates were scanned twice, at a resolution of 1200 dots per inch, 16-bit grayscale, producing a jpeg image. The light intensity produced by the scanner was sufficient to cause negative phototaxis equivalent to a physical stimulus for mortality determination. The time required to scan four 96-well plates using an Epson Perfection V700 Photo Scanner was less than ten minutes. The time to screen a single plate was less than 1.2 minutes, with less than ten seconds between scans.
WormScan was used to screen for the same phenotypes as in the manual screen (reduced brood size, reduced behavior/motility response and increased mortality). Two sequential scans for each 96-well plate were aligned to a reference region of interest (ROI). Image analysis was based on a difference image score calculated for each ROI. The difference image score (WormScan score) was normalized using a “percent of control” method to derive a normalized WormScan score. […] Wild-type growth in 1% DMSO (Fig 1A) results in a normalized WormScan score of 100. Exposure to 50 nM ivermectin gives a score of 0 (Fig 1C), and complete absence of worms gives a score of 0 (Fig 1D). For the primary screen the WormScan score was calculated using custom macro scripts written for Fiji. For secondary screening and any subsequent studies the WormScan score was calculated using a standalone Java program (See supplemental). Probit regression of mortality was calculated using Mathematica 8.0.

[4] = system: S. cerevisiae yeast strain BY4743; assay: Yeast growth rate (OD600) dose titration; assay type: cell-based; details: BY4743, YPD, growth rate reduced by 50%
Protocol: The S. cerevisiae yeast strain BY4743 (MATa/α his3Δ1/his3Δ1 leu2Δ0/leu2Δ0 LYS2/lys2Δ0 met15Δ0/MET15 ura3Δ0/ura3Δ0) was used for all yeast experiments and was grown using yeast extract peptone dextrose (YPD) media at pH 7 [52]. BY4743 was grown overnight to initial log phase and was then grown with the compound identified in the C. elegans assay. The growth rate was quantified by continuously monitoring the optical density of the liquid yeast growth at OD600. The compound was screened in a dose-titration in YPD as described. The IC50 was the concentration required to reduce the growth rate or Average G value by 50% compared to a vehicle control (2% DMSO).

| Compound | Worm Reaction in Drug [1] | other results |
| --- | --- | --- |
| CC(=O)O[C@@]12C[C@@H](C)[C@@]3(O)[C@@H](C=C(CO)C[C@]4(O)C(=O)C(C)=C[C@@H]34)[C@@H]1C2(C)C [12-Deoxyphorbol 13-acetate] | SLOW only L1/2s (& orig adults), lots unhatched eggs | – |
| CC(=O)OCC1=C[C@H]2[C@@H]3C(C)(C)[C@]3(OC(=O)Cc3ccccc3)C[C@@H](C)[C@]2(O)[C@@H]2C=C(C)C(=O)[C@@]2(O)C1 [12-Deoxyphorbol 13-phenylacetate 20-acetate] | Adults DEAD, only L1s/2s, not starved | – |
| Cl.c1ccc([C@H]2CN3CCSC3=N2)cc1 [(-)-Tetramisole hydrochloride] | UNC! Paralyzed, lots of worms, 1 starved, 1 not | – |
| CNC(=O)O/N=C/C(C)(C)SC [Aldicarb] | UNC adults, but definitely STARVED | – |
| COc1cccc2c1cc([N+](=O)[O-])c1c(C(=O)O)cc3c(c12)OCO3 [Aristolochic acid A] | SLOW, 1:only L2s, not starved, 2:1 sterile adult? | – |
| CCCCNC(=O)n1c(NC(=O)OC)nc2ccccc21 [Benomyl, reference compound] | – | IC50 ([2]; Homo sapiens): 8 µM; IC50 ([3]; Caenorhabditis elegans, 120 h): 60 µM; IC50 ([4]; Saccharomyces cerevisiae): 750 µM |
| NNC(=O)CCn1c2ccc(Cl)cc2c2cc(Cl)ccc21 [CID 766260] | – | IC50 [2]: 44 µM; IC50 ([3]; C. elegans, 5 days exposure): 282 µM; IC50 [4]: 113 µM |
| O=C1c2ccc(-c3nc4cc(Cl)ccc4c(=O)o3)cc2C(=O)N1c1ccccc1-c1ccccc1 [CID 2222671] | – | IC50 [2]: 234 µM; IC50 ([3]; C. elegans, 5 days exposure): > 500 µM; IC50 [4]: > 1000 µM |
| N#CSCCCOc1ccccc1Br [CID 2238042] | – | IC50 [2]: 67 µM; IC50 ([3]; C. elegans, 5 days exposure): 357 µM; IC50 [4]: 338 µM |
| Fc1ccc(COc2ccc(-c3nnco3)cc2)cc1 [CID 2740991] | – | IC50 [2]: 83 µM; IC50 ([3]; C. elegans, 5 days exposure): 19 µM; IC50 [4]: > 1000 µM |
| CC[C@@]1(O)C(=O)OCc2c1cc1n(c2=O)Cc2cc3ccccc3nc2-1 [Camptothecin] | SLOW - progeny paralyzed, only adults moving, not starved; also recorded: SLOW 1 well only 3 worms (dead ones, unhatched eggs present), other starved, lots of babies, 2nd gen | – |
| CC[C@@]1(O)C(=O)OCc2c1cc1n(c2=O)Cc2cc3ccccc3nc2-1 [Camptothecine (S, +)] | unc-ish, few progeny, sickly gonads not developed properly ie. Adults but not eggs, etc. | – |
| CCOP(=S)(OCC)Oc1nc(Cl)c(Cl)cc1Cl [Chlorpyrifos] | both DEAD! | – |
| Cl.Clc1ccc(Cn2c(CN3CCCC3)nc3ccccc32)cc1 [Clemizole Hydrochloride] | mostly young ones, a few adults but look sterile, a little unc | – |
| COc1cc2c(cc1OC)[C@@H]1C(=O)c3ccc4c(c3O[C@@H]1CO2)C=CC(C)(C)O4 [Deguelin] | SLOW, VERY few progeny, not starved, not very mobile | – |
| COc1cc2c(cc1OC)[C@@H]1C(=O)c3ccc4c(c3O[C@@H]1CO2)CC(C(C)C)O4 (stereo partly drawn) [Dihydrorotenone] | SLOW uncish only 1 gen ns | – |
| COC(=O)Nc1nc2ccc(Sc3ccccc3)cc2[nH]1 [Fenbendazole] | UNC (lots of worms) | – |
| CN(C)c1ccc(C(=C2C=CC(=[N+](C)C)C=C2)c2ccc(N(C)C)cc2)cc1 [Gentian Violet] | SLOW! Ns, uncish, only 1 gen past | – |

| Compound | Worm Reaction in Drug [1] | other results |
| --- | --- | --- |
| CCCCCC(=O)O[C@]1(C(C)=O)CC[C@H]2[C@@H]3CCC4=CC(=O)CC[C@]4(C)[C@H]3CC[C@@]21C [Hydroxyprogesterone Caproate] | slower, one starved one not | – |
| COC(=O)Nc1nc2ccc(SC(C)C)cc2[nH]1 [Methiazole] | UNC! Lots of worms | – |
| COP(=S)(OC)Oc1ccc([N+](=O)[O-])cc1 [Methyl Parathione] | SLOW, UNC, ns, 1 gen only | – |
| C=C(C)[C@@]12O[C@@]3(c4ccccc4)O[C@@H]1[C@@H]1[C@@H]4O[C@]4(CO)[C@@H](O)[C@]4(O)C(=O)C(C)=C[C@H]4[C@@]1(O3)[C@H](C)[C@H]2OC(=O)/C=C/C=C/c1ccccc1 [Mezerein] | Adults DEAD, only L1s/2s, not starved | – |
| CCCCc1ccc2[nH]c(NC(=O)OC)nc2c1 [Parbendazole] | UNC! Lots of worms in 1, not starved in 2 | – |
| CCCC(=O)O[C@@H]1[C@@H](C)[C@@]2(O)[C@@H](C=C(CO)C[C@]3(O)C(=O)C(C)=C[C@@H]23)[C@@H]2C(C)(C)[C@]12OC(=O)CCC [Phorbol 12, 13-dibutyrate] | SLOW only L1/2s (one gen. only), not starved | – |
| CC(Cc1ccccc1)NCCC(c1ccccc1)c1ccccc1 (stereo not drawn) [Prenylamine Lactate] | few progeny, not starved stalls at late larval? | – |
| C=C1C([C@]2(C)C(CC(=O)OC)[C@@](C)(COC(C)=O)OC(=O)C[C@@H]2OC(C)=O)[C@@H](OC=O)[C@H](OC(=O)C(OC(C)=O)C(C)CC)[C@@]2(C)[C@H](c3ccoc3)CC(=O)C12O (stereo partly drawn) [Prieuranin Acetate] | SLOW, barely 1 gen, ns; one well = only 1 worm | – |
| C=C1[C@@H]([C@@]2(C)[C@@H](OC(C)=O)CC(=O)O[C@](C)(COC(C)=O)[C@@H]2C(=O)OC)[C@@H](OC=O)[C@H](OC(=O)[C@H](O)[C@H](C)CC)[C@@]2(C)[C@H](c3ccoc3)CC(=O)[C@]12O [Prieurianin] | SLOW! Only orig adults, one well = dead, ns | – |
| O=C1c2ccc(O)c(O)c2C(=O)c2c(O)ccc(O)c21 [Quinalizarin] | SLOW, unc, ns | – |
| CCN(CC)C(=O)NC1C=C2c3cccc4[nH]cc(c34)C[C@H]2N(C)C1.O=C(O)/C=C\C(=O)O (stereo partly drawn) [R(+)-Lisuride hydrogen maleate] | UNCish, starved but slow, lots of worms | – |
| C=C(C)[C@H]1Cc2c(ccc3c2O[C@@H]2COc4cc(OC)c(OC)cc4[C@@H]2C3=O)O1 [Rotenone] | SLOW, only one gen., few, not starved | – |
| CC(C)[C@@]1(O)[C@@H](OC(=O)c2ccc[nH]2)[C@@]2(O)[C@@]3(C)C[C@]4(O)O[C@@]5([C@H](O)[C@@H](C)CC[C@]35O)[C@@]2(O)[C@@]14C [Ryanodine] | UNC! 1: lots and starved, 2: few, not starved, less uncish | – |
| COP(=O)(OC)C(O)C(Cl)(Cl)Cl (stereo not drawn) [Trichlorfon] | VERY unhappy, unc-ish, a few dpy/hypercontracted animals | – |
| CC(C)(C)c1cc(/C=C(\C#N)C(N)=S)cc(C(C)(C)C)c1O [Tyrphostin AG 879] | SLOW! Only on 2nd gen, ns | – |
| COc1ccccc1NC(=O)Nc1nc(-c2cccnc2)nc2ccccc12 [VUF 5574] | uncish adults, starved | – |
| Avermectin B1 | adults DEAD | – |
